Experiments:
[1] = Oral bioavailability in rat; assay type: ADME, organism-based; conditions: in vivo
[2] = Aqueous solubility of compound; assay type: physicochemical
[3] = Apparent permeability across apical to basolateral side in human Caco-2 cells; assay type: ADME, cell-based
[4] = Terminal half life in po dosed mouse; assay type: ADME, organism-based; conditions: in vivo, read-out: beta t1/2 (converted)
[5] = Terminal half life in po dosed human; assay type: ADME, organism-based; conditions: in vivo, read-out: beta t1/2 (converted)
[6] = Terminal half life in po dosed rat; assay type: ADME, organism-based; conditions: in vivo, read-out: beta t1/2 (converted)
[7] = Terminal half life in po dosed dog; assay type: ADME, organism-based, Canis lupus familiaris; conditions: in vivo, read-out: beta t1/2 (converted)
[8] = molecular target: GABA-A receptor; anion channel; test: Positive allosteric modulator activity at human GABAA receptor measured by [35S]TBPS based functional assay; assay type: protein-complex assay
[9] = Oral bioavailability in Sprague-Dawley rat at 2 mg/kg; assay type: ADME, organism-based; conditions: in vivo
[10] = molecular target: T1, Orexin/Hypocretin receptor type 1 (Homo sapiens, UniProt O43613); test: Antagonist activity at human OX1R by FLIPR assay
T1 sequence (O43613 whole entry): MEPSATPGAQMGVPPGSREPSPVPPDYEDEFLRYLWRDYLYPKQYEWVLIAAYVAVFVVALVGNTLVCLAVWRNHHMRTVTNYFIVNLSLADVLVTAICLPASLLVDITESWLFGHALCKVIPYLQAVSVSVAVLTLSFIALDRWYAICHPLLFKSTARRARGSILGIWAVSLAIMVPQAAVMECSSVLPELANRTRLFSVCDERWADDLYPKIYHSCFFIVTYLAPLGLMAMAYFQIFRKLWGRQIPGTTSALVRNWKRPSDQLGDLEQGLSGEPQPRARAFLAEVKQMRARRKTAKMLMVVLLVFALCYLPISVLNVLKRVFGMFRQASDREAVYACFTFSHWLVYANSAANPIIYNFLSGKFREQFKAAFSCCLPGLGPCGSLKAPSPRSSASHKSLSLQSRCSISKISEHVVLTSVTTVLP

Aspergillus fumigatus = test: Antifungal activity against Aspergillus fumigatus assessed as inhibition of fungal growth; assay type: functional
Orexin receptor type 2 = molecular target: T2, Orexin receptor type 2 (Homo sapiens, UniProt O43614); test: Antagonist activity at human OX2R by FLIPR assay
T2 sequence (O43614 whole entry): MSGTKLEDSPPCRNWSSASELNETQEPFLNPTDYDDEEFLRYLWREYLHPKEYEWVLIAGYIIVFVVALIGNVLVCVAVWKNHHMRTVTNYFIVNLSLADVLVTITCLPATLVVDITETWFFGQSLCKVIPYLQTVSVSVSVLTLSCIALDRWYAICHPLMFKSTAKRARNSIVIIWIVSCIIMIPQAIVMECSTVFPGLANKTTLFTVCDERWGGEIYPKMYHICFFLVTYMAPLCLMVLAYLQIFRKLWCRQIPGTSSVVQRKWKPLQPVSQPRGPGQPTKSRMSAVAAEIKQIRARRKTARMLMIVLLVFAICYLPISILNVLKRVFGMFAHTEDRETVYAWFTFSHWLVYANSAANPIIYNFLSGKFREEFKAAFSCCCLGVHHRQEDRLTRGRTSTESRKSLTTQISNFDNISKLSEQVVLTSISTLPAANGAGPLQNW

[11] = molecular target: Platelet-derived growth factor receptor beta (Mus musculus, UniProt P05622); test: Inhibition of PDGFR phosphorylation in BALB/c mouse 3T3 by Western blot analysis; assay type: cell-based
Sequence of Platelet-derived growth factor receptor beta (P05622 whole entry): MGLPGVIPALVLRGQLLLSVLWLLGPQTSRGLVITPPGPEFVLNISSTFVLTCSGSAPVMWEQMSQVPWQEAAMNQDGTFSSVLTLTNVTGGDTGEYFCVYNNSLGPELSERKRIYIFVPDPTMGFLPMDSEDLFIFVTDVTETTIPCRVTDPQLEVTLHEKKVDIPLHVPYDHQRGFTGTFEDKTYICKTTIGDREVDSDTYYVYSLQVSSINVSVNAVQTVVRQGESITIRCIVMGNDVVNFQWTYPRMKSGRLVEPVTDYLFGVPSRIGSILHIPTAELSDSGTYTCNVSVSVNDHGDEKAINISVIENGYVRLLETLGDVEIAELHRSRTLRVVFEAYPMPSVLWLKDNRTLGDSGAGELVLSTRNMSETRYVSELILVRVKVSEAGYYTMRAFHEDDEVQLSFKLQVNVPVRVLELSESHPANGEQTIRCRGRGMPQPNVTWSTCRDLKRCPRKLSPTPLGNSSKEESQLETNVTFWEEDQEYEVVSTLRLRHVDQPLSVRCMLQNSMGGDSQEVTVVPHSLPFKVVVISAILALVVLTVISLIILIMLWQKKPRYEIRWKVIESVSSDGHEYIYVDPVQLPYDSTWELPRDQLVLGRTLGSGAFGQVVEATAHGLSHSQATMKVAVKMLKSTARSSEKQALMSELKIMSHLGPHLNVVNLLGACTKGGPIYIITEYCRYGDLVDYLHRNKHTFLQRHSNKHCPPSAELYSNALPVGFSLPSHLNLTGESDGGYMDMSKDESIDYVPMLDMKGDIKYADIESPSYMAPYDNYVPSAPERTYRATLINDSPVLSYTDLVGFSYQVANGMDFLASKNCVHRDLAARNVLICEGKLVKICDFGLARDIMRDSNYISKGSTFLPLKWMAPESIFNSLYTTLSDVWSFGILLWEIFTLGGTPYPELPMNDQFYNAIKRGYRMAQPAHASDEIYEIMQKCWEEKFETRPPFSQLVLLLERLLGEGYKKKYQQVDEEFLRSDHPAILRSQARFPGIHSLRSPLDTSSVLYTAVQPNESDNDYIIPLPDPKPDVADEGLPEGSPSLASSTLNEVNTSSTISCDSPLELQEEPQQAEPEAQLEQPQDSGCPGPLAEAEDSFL

Protein kinase C (PKC) = test: Inhibition of PKC (unknown origin); assay type: protein assay, Homo sapiens
BCR/ABL1 = BCR/ABL1 (Mus musculus, UniProt P00520); test: Inhibition of Bcr-Abl phosphorylation in BALB/c mouse 3T3 by Western blot analysis; assay type: cell-based
Sequence of BCR/ABL1 (P00520 whole entry): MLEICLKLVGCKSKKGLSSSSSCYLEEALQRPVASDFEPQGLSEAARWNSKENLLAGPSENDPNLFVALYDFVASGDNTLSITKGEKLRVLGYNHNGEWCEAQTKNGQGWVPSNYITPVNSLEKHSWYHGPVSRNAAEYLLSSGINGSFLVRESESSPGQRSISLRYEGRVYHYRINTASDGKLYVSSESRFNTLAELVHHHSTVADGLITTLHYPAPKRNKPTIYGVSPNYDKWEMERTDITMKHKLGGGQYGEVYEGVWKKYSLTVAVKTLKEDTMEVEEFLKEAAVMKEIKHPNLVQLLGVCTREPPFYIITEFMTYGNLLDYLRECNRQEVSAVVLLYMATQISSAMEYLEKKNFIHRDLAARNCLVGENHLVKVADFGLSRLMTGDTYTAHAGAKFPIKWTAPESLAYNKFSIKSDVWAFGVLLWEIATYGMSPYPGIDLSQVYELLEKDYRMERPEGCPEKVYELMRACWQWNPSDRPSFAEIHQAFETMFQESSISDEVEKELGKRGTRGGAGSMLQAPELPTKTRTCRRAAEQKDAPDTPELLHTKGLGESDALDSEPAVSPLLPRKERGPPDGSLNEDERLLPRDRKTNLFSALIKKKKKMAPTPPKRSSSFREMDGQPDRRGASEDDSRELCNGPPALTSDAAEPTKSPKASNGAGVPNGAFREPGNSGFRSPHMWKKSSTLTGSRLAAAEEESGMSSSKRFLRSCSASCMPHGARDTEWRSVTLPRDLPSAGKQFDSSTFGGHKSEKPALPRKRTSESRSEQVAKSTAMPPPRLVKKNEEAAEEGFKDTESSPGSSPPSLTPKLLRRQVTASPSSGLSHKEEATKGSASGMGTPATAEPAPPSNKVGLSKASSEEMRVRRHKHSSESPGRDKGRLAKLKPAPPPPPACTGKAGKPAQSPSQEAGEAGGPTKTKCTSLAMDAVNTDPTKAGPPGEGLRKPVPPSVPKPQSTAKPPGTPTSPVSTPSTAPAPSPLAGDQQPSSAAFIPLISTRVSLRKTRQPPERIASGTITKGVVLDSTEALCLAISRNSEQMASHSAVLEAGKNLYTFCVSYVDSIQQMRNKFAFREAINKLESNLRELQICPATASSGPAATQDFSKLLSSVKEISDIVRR
Sequence of BCR/ABL1 (Q6PAJ1 whole entry, further chain): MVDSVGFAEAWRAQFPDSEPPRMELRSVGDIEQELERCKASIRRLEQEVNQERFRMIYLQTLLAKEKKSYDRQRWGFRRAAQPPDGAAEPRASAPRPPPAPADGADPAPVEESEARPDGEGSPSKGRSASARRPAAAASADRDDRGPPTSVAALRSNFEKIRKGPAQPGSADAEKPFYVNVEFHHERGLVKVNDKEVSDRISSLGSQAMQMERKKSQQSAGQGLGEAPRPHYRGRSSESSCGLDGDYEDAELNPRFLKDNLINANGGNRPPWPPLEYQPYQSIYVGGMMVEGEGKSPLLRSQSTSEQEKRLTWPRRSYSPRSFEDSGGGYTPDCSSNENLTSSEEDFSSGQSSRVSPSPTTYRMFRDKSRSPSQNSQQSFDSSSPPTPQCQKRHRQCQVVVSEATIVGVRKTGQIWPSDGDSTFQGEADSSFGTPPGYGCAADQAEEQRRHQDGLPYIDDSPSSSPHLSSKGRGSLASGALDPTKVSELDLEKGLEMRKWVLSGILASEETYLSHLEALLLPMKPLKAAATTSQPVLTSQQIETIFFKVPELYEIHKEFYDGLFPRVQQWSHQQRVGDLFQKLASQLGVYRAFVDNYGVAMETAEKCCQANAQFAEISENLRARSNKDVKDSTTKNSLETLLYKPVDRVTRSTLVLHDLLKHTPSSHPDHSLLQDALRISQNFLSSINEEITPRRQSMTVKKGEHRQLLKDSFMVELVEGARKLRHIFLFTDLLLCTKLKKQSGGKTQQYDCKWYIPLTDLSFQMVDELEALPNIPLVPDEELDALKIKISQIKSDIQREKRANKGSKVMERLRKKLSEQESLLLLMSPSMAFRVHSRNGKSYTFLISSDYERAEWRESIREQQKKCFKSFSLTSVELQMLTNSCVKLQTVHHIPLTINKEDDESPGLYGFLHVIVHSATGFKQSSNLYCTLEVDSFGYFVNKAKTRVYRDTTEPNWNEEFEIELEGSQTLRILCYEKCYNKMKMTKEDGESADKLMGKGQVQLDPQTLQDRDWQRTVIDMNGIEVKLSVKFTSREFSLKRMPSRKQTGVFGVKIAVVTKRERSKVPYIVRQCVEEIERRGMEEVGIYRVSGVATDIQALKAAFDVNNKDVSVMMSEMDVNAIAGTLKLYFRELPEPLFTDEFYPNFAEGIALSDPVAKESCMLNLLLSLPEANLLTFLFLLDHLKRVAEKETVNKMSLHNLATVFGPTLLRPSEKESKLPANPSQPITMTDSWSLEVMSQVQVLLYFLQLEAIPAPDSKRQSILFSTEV

[12] = molecular target: cAMP-dependent protein kinase (PKA) (Homo sapiens, UniProt P22694+P17612+P22612); test: Inhibition of PKA (unknown origin); assay type: protein assay
clinical = conditions: human, plasma, po, 100 mg
[13] = Half life in Sprague-Dawley rat plasma at 20 mg/kg, po; assay type: ADME, organism-based
[14] = Half life in rat plasma; assay type: ADME, cell-free
[15] = Oral bioavailability in Beagle dog at 0.5 mg/kg; assay type: ADME, organism-based, Canis lupus familiaris; conditions: in vivo
[16] = molecular target: T3, 3-hydroxy-3-methylglutaryl-coenzyme A reductase (Rattus norvegicus, UniProt P51639); test: Inhibition of rat liver HMG-CoA reductase pre incubated for 5 mins followed by substrate addition using NADPH as substrate by scintillation counter analysis; assay type: tissue-based
T3 sequence (P51639 whole entry): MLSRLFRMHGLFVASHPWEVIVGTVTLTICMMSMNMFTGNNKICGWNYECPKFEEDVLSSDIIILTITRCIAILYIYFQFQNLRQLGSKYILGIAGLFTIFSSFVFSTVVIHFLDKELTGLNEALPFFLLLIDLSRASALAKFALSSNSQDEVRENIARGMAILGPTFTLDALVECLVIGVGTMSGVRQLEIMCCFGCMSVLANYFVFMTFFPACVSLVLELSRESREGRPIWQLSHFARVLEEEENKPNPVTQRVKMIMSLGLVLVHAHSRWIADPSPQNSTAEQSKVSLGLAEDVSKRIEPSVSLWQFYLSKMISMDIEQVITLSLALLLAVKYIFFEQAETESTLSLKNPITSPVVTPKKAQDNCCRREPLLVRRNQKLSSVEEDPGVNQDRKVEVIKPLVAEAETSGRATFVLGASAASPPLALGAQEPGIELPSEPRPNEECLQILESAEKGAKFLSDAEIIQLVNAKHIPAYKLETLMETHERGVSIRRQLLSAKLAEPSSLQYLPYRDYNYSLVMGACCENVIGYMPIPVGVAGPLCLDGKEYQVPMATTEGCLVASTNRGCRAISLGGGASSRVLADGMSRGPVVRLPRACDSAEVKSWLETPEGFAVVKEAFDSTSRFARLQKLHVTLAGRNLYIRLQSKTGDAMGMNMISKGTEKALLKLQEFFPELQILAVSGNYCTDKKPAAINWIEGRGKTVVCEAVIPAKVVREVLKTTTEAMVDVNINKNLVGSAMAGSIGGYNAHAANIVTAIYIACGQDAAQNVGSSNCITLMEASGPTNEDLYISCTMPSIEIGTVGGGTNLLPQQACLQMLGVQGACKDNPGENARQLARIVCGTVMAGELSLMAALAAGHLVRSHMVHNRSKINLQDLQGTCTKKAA

CC(c1ccncc1)n1[nH]c(=O)c2[nH]c3cc(Cl)ccc3c(=O)c2c1=O (configuration not stated)
bioavailability [1]: 30% | solubility [2]: > 290 µg/mL

O=c1[nH]n(Cc2ccncc2)c(=O)c2c(=O)c3ccc(Cl)cc3[nH]c12
Papp A→B [3]: 0.2 ×10⁻⁶ cm/s

O=c1[nH]nc(CN2CCO[C@H](OCc3cc(C(F)(F)F)cc(C(F)(F)F)c3)[C@@H]2c2ccc(F)cc2)[nH]1
half-life [4]: 180 min | half-life [5]: 540 min | half-life [6]: 180 min | half-life [7]: 180 min

CC(=O)[C@H]1CCC2C3CC[C@H]4C[C@](C)(O)CC[C@]4(C)C3CC[C@@]21C (some centres not stated)
IC50 [8]: 80 nM

Cc1ccc(-n2nccn2)c(C(=O)N2C[C@H](COc3ccc(F)cn3)CC[C@H]2C)c1
bioavailability [9]: < 10% | solubility [2]: < 24 µM

COc1cccc(OC)c1C(=O)N1CCCN(c2nc3ccc(Cl)cc3s2)CC1
Ki [10]: 150 nM

CC(=O)[C@H]1CCC2C3CC[C@H]4C[C@H](O)CC[C@]4(C)C3CC[C@@]21C (some centres not stated)
IC50 [8]: 51 nM

OC(Cn1cncn1)(Cn1cncn1)c1ccc(F)cc1
MIC (Aspergillus fumigatus): > 50 µg/mL

Cc1ccc(-n2nccn2)c(C(=O)N2CCC[C@@H](COc3ccc(F)cn3)C2)c1
Ki [10]: 96 nM | Ki (Orexin receptor type 2): 29 nM

CN1CCN(Cc2ccc(C(=O)Nc3cccc(Nc4nccc(-c5cccnc5)n4)c3)cc2)CC1
IC50 [11]: 200 nM | IC50 (Protein kinase C (PKC)): > 100 µM | IC50 (BCR/ABL1): 100 nM | IC50 [12]: > 100 µM

Cc1ccc(-c2cc(C(F)(F)F)nn2-c2ccc(S(N)(=O)=O)cc2)cc1 [CELECOXIB]
half-life (clinical): 720 min | half-life [13]: 210 min

Cc1ccc(-c2ncc(Cl)cc2-c2ccc(S(C)(=O)=O)cc2)cn1 [ETORICOXIB]
half-life [14]: 120 min

Cc1ccc(-c2ncccn2)c(C(=O)N2C[C@H](COc3ccc(F)cn3)CC[C@H]2C)c1 [FILOREXANT]
bioavailability [9]: 25% | solubility [2]: 192 µM | bioavailability [15]: 26%

Cc1ccc(NC(=O)c2ccc(CN3CCN(C)CC3)cc2)cc1Nc1nccc(-c2cccnc2)n1 [IMATINIB]
IC50 [11]: 50 nM

CC[C@H](C)C(=O)O[C@H]1C[C@@H](C)C=C2C=C[C@H](C)[C@H](CC[C@@H]3C[C@@H](O)CC(=O)O3)[C@H]21 [LOVASTATIN]
IC50 [16]: 2.2 nM
